# Data from patent US20220098203A1 (priority 2018, published 2022).
# pIC50: −log10 of the molar value.
# Experiments:
# [1] = system: SAM in HCT116 MTAP-deleted cells; test: Cellular assay of target engagement (SAM), LC-MS/MS; assay type: cell-based, human; details: Homo sapiens, HCT-116, Table 5a, 72 h, read-out: Cell 72 h SAM Inhibition (MTAP −/−)
# Summary of the method: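 Target engagement was read as intracellular SAM, measured by LC-MS/MS with d3-SAM as internal standard in methanol/acetic acid extracts. These came from MTAP-deleted HCT116 colon carcinoma cells exposed to inhibitor for 72 hrs.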
# [2] = system: HCT116 MTAP+/+; test: Inhibition of cellular proliferation (Cell Titer Glo), HCT116 MTAP+/+; assay type: cell-based; details: Homo sapiens, HCT-116, 96 h, Table 5a, 4 days, read-out: 4 Day Relative Growth Inhibition (MTAP +/+)
# Summary of the method: (§1)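 After 4 days of compound exposure at 37 °C, starting 24 h after plating, growth of the MTAP-wildtype and MTAP-deleted HCT116 pair was measured as ATP luminescence (CellTiter-Glo). The proliferation index was signal minus no-cell blank, divided by blank-corrected 0.2% DMSO control.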
# [3] = biological target: T1, MAT2A homodimer (Homo sapiens, UniProt P31153); test: MAT2A biochemical assay (liberated phosphate, PiColorLock Gold); details: Table 5a; MAT2A biochemical assay; read-out: Enzyme Inhibition
# T1 construct: inferred from the Ni sepharose purification and imidazole elution; made in house; host or cells: SF9 insect cells, recombinant baculovirus (Bac to Bac, pFASTBAC1)
# Summary of the method: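 Readout is liberated phosphate (PiColorLock Gold), stoichiometric with SAM production, quantified against a potassium phosphate standard curve. Enzyme: recombinant MAT2A homodimer from Sf9, equilibrated 60 min at 25 °C with compound before 60 min reaction with substrate mix containing 500 μM ATP and 400 μM L-methionine.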
# [4] = system: HCT116 MTAP-/-; test: Inhibition of cellular proliferation (Cell Titer Glo), HCT116 MTAP-/-; assay type: cell-based, human; details: Homo sapiens, HCT-116, 96 h, Table 5a, 4 days, read-out: 4 Day Relative Growth Inhibition (MTAP −/−)
# Summary of the method: as §1
# T1 sequence (P31153 whole entry): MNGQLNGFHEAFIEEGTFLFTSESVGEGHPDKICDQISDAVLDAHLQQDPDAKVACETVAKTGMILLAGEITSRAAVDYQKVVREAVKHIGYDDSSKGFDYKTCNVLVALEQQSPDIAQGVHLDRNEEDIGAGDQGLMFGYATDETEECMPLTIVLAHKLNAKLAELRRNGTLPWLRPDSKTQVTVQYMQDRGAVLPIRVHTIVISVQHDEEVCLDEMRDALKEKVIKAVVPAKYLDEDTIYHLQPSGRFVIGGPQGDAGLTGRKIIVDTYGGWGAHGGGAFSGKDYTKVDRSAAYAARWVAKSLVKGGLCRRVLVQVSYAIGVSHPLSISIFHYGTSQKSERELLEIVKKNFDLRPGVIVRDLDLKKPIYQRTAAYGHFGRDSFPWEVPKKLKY
pIC50 [1],pIC50 [2],pIC50 [3],pIC50 [4],Structure (SMILES)
> 7.00,6.00 to 7.00,> 7.00,> 7.00,"Cn1cc2cc(N3Cc4ccc(OCC(F)F)nc4N(c4ccc5c(ccn5C)c4)C3=O)ccc2n1 [Example 172, 7-(2,2-difluoroethoxy)-1-(1-methyl-1H-indol-5-yl)-3-(2-methyl-2H-indazol-5-yl)-3,4-dihydropyrido[2,3-d]pyrimidin-2(1H)-one]"
> 7.00,< 6.00,> 7.00,6.00 to 7.00,"CCOc1ccc2c(n1)N(c1ccc(OC)cc1)C(=O)N(c1ccc3nn(C)cc3c1)C2 [Example 143, 7-ethoxy-1-(4-methoxyphenyl)-3-(2-methyl-2H-indazol-5-yl)-3,4-dihydropyrido[2,3-d]pyrimidin-2(1H)-one]"
> 7.00,< 6.00,> 7.00,> 7.00,"[2H]C([2H])([2H])Oc1ccc(N2C(=O)N(c3ccc4nn(C)cc4c3)Cc3ccc(OC(C)C)nc32)cc1 [Example 167, 7-isopropoxy-1-(4-methoxy-d3-phenyl)-3-(2-methyl-2H-indazol-5-yl)-3,4-dihydropyrido[2,3-d]pyrimidin-2(1H)-one]"
> 7.00,6.00 to 7.00,> 7.00,> 7.00,"[2H]C([2H])([2H])Oc1ccc(N2C(=O)N(c3ccc4nn(C)cc4c3)Cc3ccc(OCC(F)F)nc32)cc1 [Example 136, 7-(2,2-difluoroethoxy)-1-(4-(methoxy-d3)phenyl)-3-(2-methyl-2H-indazol-5-yl)-3,4-dihydropyrido[2,3-d]pyrimidin-2(1H)-one]"
> 7.00,< 6.00,> 7.00,6.00 to 7.00,"[2H]C([2H])([2H])Oc1ccc(N2C(=O)N(c3ccc4nn(CCC)cc4c3)Cc3ccc(OCC(F)F)nc32)cc1 [Example 123, 7-(2,2-difluoroethoxy)-1-(4-methoxy-d3-phenyl)-3-(2-propyl-2H-indazol-5-yl)-3,4-dihydropyrido[2,3-d]pyrimidin-2(1H)-one]"
> 7.00,< 6.00,> 7.00,> 7.00,"[2H]C([2H])([2H])Oc1ccc(N2C(=O)N(c3ccc4nn(C)cc4c3)Cc3ccc(OC(C)C(F)F)nc32)cc1 (stereo not shown) [Example 168, 7-((1,1-difluoropropan-2-yl)oxy)-1-(4-methoxy-d3-phenyl)-3-(2-methyl-2H-indazol-5-yl)-3,4-dihydropyrido[2,3-d]pyrimidin-2(1H)-one]"

# More lines, now with the values behind:
Structure (SMILES),pIC50 [1],pIC50 [2],pIC50 [3],pIC50 [4]
"COC1CC=C(N2C(=O)N(c3ccc4nn(C)cc4c3)Cc3ccc(OCC(F)F)nc32)CC1 (stereo not shown) [Example 178, 7-(2,2-difluoroethoxy)-1-(4-methoxycyclohex-1-en-1-yl)-3-(2-methyl-2H-indazol-5-yl)-3,4-dihydropyrido[2,3-d]pyrimidin-2(1H)-one]",> 7.00,6.00 to 7.00,> 7.00,> 7.00
"Cn1cc2cc(N3Cc4ccc(OCC(F)F)nc4N(c4ccc5[nH]ccc5c4)C3=O)ccc2n1 [Example 169, 7-(2,2-difluoroethoxy)-1-(1H-indol-5-yl)-3-(2-methyl-2H-indazol-5-yl)-3,4-dihydropyrido[2,3-d]pyrimidin-2(1H)-one]",> 7.00,< 6.00,> 7.00,> 7.00
"[2H]C([2H])([2H])Oc1ccc(N2C(=O)N(c3ccc4nn(C)cc4c3)Cc3ncc(OCC(F)F)nc32)cc1 [Example 181, 7-(2,2-difluoroethoxy)-1-(4-(methoxy-d3)phenyl)-3-(2-methyl-2H-indazol-5-yl)-3,4-dihydropteridin-2(1H)-one]",> 7.00,< 6.00,> 7.00,> 7.00
"O=C1N(c2ccc3ncsc3c2)Cc2ccc(OCC(F)F)nc2N1c1ccc(Br)cc1 [Example 409, 3-(benzo[d]thiazol-6-yl)-1-(4-bromophenyl)-7-(2,2-difluoroethoxy)-3,4-dihydropyrido[2,3-d]pyrimidin-2(1H)-one]",> 7.00,6.00 to 7.00,> 7.00,> 7.00
